Experimental data published in ChEMBL document CHEMBL1201862, “PubChem BioAssay data set” (2004).
Activity calls are given as the source filed them.

Experiments:
Beta-galactosidase = Beta-galactosidase (Escherichia coli, UniProt Q8VNN2); assay: PubChem AID 485352; format: functional
[1] = target: Type-1 angiotensin II receptor (Homo sapiens, UniProt P30556); assay: AT1 receptor antagonists, dose response, selectivity assay for APJ receptor antagonist project, cell-based, uHTS hits (AID 463214); format: functional;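 also: antagonist potency against angiotensin II stimulated AT1 response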
[2] = target: Dual specificity protein kinase CLK1 (Homo sapiens, UniProt P49759); assay: CLK1 kinase inhibitors, off-target check, dose response, selectivity assay for Dyrk1A inhibitor project, biochemical, cherry-picked samples (AID 588811)
[3] = Luminescence Cell-Based Dose Response HTS to Identify Activators of Luciferase Translation or Activity in H4 […] Cells. [Related pubchem assays: 1829 (Project Summary), 1814 (Primary HTS)]; format: functional
HEK293 = assay: cells; format: functional, cell-based; details: Homo sapiens
H4 = assay: Luminescence Cell-Based Dose Response HTS to Identify Activators of 5'UTR Stem-Loop Driven Prion Protein mRNA Translation in H4 Neuroglioblastoma Cells. [Related pubchem assays: 1829 (Project Summary), 1814 (Primary HTS)]; format: functional; details: Homo sapiens
[4] = HepG2 cell cytotoxicity, dose response, cytotoxicity control, ATP luminescence, cherry-pick, activator set 2 (AID 1053143); format: functional, cell-based
[5] = target: Nuclear receptor subfamily 0 group B member 1 (Homo sapiens, UniProt P51843); assay: Luminescence-based cell-based high throughput dose response assay for inhibitors of the orphan nuclear receptor subfamily 0, group B, member 1 (DAX1; NR0B1). [Related pubchem assays (depositor defined):AID504766, AID504790]; format: functional
[6] = Luminescence Cell-Based Dose Confirmation HTS to Identify Activators of 5'UTR Stem-Loop Driven Alpha-Synuclein mRNA Translation in H4 Neuroglioblastoma Cells. [Related pubchem assays: 1829 (Project Summary), 1814 (Primary HTS)]; format: functional
cells [7] = format: functional, cell-based
cells [8] = format: functional, cell-based; remark: listed apart in the source
HeLa = assay: HeLa cell cytotoxicity, dose response, cytotoxicity control, 48 h, plate reader, cherry-picks (AID 504942); format: functional, cell-based; details: Homo sapiens
[9] = target: Acyl-homoserine lactone acylase PvdQ (Pseudomonas aeruginosa (strain LESB58), UniProt Q9I194); assay: P. aeruginosa PvdQ acylase inhibitors, dose response, biochemical, fluorescence, plate reader and imaging, cherry-picks (AID 493231)
[10] = target: T1, Potassium voltage-gated channel subfamily KQT member 4 (Homo sapiens, UniProt P56696); assay: KCNQ4 channel modulation, potentiation or inhibition, dose response, selectivity assay for KCNQ2 activator project, thallium flux, KCNQ4-expressing cells (AID 504416); format: functional, cell-based
[11] = target: Potassium voltage-gated channel subfamily KQT member 2/member 3 (Rattus norvegicus, UniProt O88943+O88944); assay: Mode of action assay-Dose response assay for KCNQ2 activators in the KCNQ2/KCNQ3 co-expressing cells on automated patch clamp. [Related pubchem assays (depositor defined):AID2239, AID2258, AID2287]; format: functional
[12] = target: Potassium voltage-gated channel subfamily KQT member 2 (Rattus norvegicus, UniProt O88943); assay: Mode of action assay-Dose response assay for compounds that activate KCNQ2 potassium channels on automated patch clamp. [Related pubchem assays (depositor defined):AID2239, AID2258, AID2287, AID493113]; format: functional
[13] = target: T1, Potassium voltage-gated channel subfamily KQT member 4; assay: human KCNQ4 channel current potentiation, dose response, selectivity assay for KCNQ2 activator project, automated patch clamp, CHO cells (AID 493043); format: functional, cell-based

T1 sequence (P56696 whole entry): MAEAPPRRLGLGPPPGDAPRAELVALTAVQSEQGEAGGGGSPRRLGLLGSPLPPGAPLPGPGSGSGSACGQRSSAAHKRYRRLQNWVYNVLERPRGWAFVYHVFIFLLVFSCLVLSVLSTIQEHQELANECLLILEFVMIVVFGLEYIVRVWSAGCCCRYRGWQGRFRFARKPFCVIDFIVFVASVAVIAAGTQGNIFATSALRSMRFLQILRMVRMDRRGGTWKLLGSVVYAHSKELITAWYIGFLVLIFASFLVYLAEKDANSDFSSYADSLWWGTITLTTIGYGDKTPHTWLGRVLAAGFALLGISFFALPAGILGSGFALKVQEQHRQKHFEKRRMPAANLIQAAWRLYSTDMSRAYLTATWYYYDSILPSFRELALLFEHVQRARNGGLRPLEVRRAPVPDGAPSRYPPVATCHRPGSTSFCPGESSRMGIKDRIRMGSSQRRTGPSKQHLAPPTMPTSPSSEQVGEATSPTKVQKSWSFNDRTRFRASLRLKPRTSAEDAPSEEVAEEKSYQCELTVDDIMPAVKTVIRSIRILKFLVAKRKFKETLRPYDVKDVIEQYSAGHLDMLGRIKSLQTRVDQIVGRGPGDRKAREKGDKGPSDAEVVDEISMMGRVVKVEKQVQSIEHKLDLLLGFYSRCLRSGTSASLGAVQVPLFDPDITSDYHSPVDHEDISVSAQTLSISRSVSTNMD
Chain of Potassium voltage-gated channel subfamily KQT member 2/member 3 (O88943 whole entry): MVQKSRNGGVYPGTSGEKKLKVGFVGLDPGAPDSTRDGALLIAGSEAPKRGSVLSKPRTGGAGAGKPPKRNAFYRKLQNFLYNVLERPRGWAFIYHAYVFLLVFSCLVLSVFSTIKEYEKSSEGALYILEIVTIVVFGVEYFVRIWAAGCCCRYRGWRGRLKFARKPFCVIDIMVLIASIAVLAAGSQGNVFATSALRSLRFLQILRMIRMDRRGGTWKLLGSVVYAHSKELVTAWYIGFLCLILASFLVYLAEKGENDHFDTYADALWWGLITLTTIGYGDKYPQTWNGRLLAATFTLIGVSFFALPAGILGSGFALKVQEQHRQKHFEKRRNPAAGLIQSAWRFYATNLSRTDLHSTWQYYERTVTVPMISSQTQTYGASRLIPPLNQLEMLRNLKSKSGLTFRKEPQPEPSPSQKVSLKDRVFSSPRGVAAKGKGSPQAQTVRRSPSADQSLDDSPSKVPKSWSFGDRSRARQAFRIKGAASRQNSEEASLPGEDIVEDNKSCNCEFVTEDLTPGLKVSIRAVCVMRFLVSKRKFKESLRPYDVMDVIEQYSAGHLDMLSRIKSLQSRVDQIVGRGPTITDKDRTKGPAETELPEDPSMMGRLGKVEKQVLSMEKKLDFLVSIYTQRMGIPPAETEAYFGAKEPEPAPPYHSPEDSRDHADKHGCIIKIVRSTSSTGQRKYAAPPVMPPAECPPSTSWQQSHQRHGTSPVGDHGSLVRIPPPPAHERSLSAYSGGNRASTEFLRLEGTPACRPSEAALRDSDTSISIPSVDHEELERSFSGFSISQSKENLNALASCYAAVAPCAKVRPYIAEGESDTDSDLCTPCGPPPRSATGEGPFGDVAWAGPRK
Chain of Potassium voltage-gated channel subfamily KQT member 2/member 3 (O88944 whole entry): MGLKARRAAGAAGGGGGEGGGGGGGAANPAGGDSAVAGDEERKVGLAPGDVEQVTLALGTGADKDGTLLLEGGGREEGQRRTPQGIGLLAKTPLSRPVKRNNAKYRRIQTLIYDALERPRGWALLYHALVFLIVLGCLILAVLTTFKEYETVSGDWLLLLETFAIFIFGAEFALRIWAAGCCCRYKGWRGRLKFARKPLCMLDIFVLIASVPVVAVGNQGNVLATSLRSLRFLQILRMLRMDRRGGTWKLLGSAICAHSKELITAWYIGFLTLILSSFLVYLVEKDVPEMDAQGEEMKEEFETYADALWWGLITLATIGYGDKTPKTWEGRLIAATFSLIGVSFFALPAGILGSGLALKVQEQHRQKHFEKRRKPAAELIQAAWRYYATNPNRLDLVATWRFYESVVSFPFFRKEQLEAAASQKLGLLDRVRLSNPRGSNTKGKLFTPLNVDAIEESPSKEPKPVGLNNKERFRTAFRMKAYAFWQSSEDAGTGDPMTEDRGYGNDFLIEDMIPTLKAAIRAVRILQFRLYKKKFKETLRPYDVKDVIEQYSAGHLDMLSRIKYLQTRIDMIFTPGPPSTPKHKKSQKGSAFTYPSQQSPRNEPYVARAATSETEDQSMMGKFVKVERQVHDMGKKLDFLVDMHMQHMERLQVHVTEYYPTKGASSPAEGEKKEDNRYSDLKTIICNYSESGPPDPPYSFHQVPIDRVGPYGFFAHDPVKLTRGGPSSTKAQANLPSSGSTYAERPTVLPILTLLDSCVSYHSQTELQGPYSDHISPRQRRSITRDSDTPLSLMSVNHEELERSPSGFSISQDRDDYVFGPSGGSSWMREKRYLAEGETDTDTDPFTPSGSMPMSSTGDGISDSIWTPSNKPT
Chain of Potassium voltage-gated channel subfamily KQT member 2 (O88943 whole entry): as the sequence (O88943 whole entry) above
Chain of Type-1 angiotensin II receptor (P30556 whole entry): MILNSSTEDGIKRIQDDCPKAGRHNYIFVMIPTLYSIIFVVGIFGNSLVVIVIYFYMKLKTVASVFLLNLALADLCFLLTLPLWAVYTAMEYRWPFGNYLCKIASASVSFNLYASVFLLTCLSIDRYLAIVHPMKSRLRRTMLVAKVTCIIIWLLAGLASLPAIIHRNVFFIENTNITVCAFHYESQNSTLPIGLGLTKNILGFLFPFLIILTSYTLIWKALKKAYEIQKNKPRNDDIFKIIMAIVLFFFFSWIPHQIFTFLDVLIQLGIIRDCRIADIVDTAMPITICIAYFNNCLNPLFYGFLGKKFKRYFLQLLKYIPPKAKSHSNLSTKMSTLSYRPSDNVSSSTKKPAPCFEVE
Chain of Beta-galactosidase (Q8VNN2 whole entry): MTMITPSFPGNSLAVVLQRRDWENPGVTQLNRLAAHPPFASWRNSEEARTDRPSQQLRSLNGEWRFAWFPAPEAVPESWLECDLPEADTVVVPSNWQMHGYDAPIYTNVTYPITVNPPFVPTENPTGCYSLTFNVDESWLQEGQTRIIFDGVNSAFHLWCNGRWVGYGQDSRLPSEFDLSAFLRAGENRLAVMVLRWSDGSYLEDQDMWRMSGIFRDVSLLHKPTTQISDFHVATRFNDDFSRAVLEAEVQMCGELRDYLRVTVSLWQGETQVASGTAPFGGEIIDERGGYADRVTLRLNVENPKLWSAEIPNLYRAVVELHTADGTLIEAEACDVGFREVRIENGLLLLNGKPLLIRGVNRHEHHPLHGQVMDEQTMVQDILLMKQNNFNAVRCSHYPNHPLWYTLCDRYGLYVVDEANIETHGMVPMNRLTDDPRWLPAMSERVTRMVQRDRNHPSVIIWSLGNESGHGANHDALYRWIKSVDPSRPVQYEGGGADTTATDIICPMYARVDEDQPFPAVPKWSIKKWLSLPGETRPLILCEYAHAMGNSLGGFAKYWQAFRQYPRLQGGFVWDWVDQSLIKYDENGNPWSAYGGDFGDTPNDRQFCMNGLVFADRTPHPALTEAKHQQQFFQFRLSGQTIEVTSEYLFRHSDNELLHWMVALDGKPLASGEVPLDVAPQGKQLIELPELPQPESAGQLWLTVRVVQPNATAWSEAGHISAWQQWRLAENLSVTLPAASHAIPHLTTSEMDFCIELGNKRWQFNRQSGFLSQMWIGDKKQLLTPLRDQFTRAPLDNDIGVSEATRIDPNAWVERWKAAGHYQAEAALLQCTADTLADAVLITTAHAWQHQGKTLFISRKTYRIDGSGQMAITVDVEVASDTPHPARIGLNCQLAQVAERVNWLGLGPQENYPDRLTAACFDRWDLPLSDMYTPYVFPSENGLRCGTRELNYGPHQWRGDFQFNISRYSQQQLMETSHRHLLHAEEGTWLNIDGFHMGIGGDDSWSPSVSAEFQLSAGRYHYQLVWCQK
Chain of Nuclear receptor subfamily 0 group B member 1 (P51843 whole entry): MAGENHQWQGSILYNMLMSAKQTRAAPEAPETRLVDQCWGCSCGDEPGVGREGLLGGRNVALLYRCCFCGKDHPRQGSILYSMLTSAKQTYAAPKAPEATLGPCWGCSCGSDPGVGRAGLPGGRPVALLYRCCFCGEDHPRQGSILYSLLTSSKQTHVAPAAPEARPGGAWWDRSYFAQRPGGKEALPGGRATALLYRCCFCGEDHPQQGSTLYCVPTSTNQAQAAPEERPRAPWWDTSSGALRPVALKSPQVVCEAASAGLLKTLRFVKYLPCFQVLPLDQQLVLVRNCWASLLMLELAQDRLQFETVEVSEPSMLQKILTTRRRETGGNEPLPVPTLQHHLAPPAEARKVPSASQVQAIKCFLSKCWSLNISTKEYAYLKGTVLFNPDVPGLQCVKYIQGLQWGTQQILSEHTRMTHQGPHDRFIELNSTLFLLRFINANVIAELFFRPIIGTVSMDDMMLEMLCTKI
Chain of Acyl-homoserine lactone acylase PvdQ (Q9I194 24-193 limits assumed): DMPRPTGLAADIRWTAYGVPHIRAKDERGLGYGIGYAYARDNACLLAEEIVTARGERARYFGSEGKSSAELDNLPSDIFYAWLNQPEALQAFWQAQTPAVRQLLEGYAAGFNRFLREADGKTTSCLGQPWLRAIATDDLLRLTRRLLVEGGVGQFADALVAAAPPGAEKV
Chain of Acyl-homoserine lactone acylase PvdQ (Q9I194 217-762 limits assumed): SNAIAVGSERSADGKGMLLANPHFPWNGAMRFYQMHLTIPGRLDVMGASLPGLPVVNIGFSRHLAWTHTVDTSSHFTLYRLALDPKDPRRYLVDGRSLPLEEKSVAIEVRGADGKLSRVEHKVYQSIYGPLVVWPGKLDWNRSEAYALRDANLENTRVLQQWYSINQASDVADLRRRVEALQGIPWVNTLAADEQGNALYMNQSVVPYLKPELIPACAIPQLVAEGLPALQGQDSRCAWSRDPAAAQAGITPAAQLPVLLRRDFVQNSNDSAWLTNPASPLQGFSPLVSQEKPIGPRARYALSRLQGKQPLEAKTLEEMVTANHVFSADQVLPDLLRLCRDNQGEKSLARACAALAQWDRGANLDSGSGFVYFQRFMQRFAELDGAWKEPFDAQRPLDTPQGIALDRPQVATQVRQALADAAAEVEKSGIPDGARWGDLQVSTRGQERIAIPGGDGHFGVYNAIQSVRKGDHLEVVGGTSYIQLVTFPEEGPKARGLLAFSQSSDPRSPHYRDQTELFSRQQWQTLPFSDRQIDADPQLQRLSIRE

CC(=O)Oc1ccc(/C=C2/SC(=S)N(Cc3ccccc3)C2=O)cc1
EC50 (Beta-galactosidase): > 40 µM (inactive)
IC50 [1]: > 40 µM (not active)

CN(C)S(=O)(=O)c1ccc(Cl)c(C(=O)Nc2cccc3ncccc23)c1
AC50 [2]: 1.84 µM (active)

O=C(Nc1ccccc1O)c1ccc(NC(=O)C2CC2)cc1
EC50 [3]: 17.3 µM (active)
IC50 (HEK293): 1.91 µM (active)
EC50 (H4): 12.3 µM (active)
AC50 [4]: 18.8 µM (active)
IC50 [5]: > 67.6 µM (inactive)
EC50 [6]: 10.5 µM (active)
EC50 (cells [7]): 51.3 µM (active)
EC50 (cells [8]): 11.2 µM (active)

O=C(Nc1ncc([N+](=O)[O-])s1)c1cccc([N+](=O)[O-])c1
AC50 (HeLa): 23.1 µM (active)
AC50 [9]: 10.3 µM (active)

CCCCC(=O)Nc1c(C)cc(C)cc1Cl
EC50 [10]: 18.7 µM (active)
EC50 [11]: 2.69 µM (active)
EC50 [12]: 2.14 µM (active)
EC50 [13]: 3.15 µM (active)
